Source: PMC10397409, “The action of physiological and synthetic steroids on the calcium channel CatSper in human sperm” (Frontiers in Cell and Developmental Biology, 2023)
Where two headings read alike, the source gives them in different places.

What was measured:
Format in all cases: cell-based
CatSper [1] = molecular target: T1, CatSper (Homo sapiens, UniProt Q7RTX7+Q86XQ3+Q8NEC5+Q96P56); assay: Inhibition of P4-induced Ca2+ influx in human sperm (screen 2 inhibitors); settings: for IC50: P4-induced response, pooled from 3 independent experiments
T1 construct: Motile spermatozoa were selected by a ‘swim-up’ procedure; endogenous in cells; host or cells: motile human spermatozoa (swim-up) from healthy donors
Protocol: (§1) Briefly, motile spermatozoa were selected by swim-up and labeled with the fluorescent calcium indicator Fluo-4 a.m. to image changes in [Ca^2+]i. After centrifugation to remove excess dye, Fluo-4 AM loaded cells were distributed in a 384-wells plate to obtain ∼125,000 cells/well. After measuring basal fluorescence, a first injection of compounds was performed in order to evaluate their effect on [Ca^2+]i alone. This first screen is therefore considered as a screen to search for ‘activators’. Fluorescence was recorded for 12 min during which sperm cells were continuously exposed to compounds. P4 or PGE1 were then added in the same wells to evaluate whether the tested compounds can reduce the ligand-induced activation of CatSper. This second screen was therefore considered to be a search for CatSper ‘inhibitors’.
(§2) Human semen samples were collected from healthy donors by masturbation after a recommended sexual abstinence period of minimum 2 days. Semen samples were allowed to liquefy at 37°C for 15–30 min. Motile spermatozoa were selected by a ‘swim-up’ procedure as previously described ([Strünker et al., 2011]). Briefly, 1 mL of semen was deposited in a 45°-inclined 50 mL Falcon tube with 4 mL of Human Tubular Fluid (HTF) medium containing: 93.8 mM NaCl, 4.7 mM KCl, 0.2 mM MgSO4, 0.37 mM KH2PO4, 2.04 mM CaCl2, 20.98 mM HEPES, 2.78 mM glucose, 21.4 mM Na-lactate, 4 mM NaHCO3, 0.33 mM Na-pyruvate, and the pH was adjusted to 7.35. Motile sperm were allowed to swim at 37°C for 1 hour. The supernatant was collected in 15 mL Falcon tubes and washed twice by centrifugation at 700 x g for 20 min. Sperm were supplemented with 3 mg/mL HSA. Written informed consent was obtained from all donors prior to donation and approved by the Cantonal Ethics Committee of the State of Geneva (CCER #14-147).
(§3) Cells were loaded with the fluorescent Ca^2+ indicator Fluo-4 AM at a final concentration of 2.5 µM for 30 min at 37°C. Excess dye was washed via centrifugation at 700 x g for 20 min and sperm were resuspended in HTF medium to obtain a final concentration of 6.25 x 10^6 cells/mL. 20 μL of cells (corresponding to ∼125,000 cells) loaded with Fluo-4 a.m. were dispensed in a 384-wells plate (Corning, NY, United States) to allow fluorescence measurement. The dye was excited at 480 nm, and emission was recorded at 530 nm. The change in [Ca^2+]i was assessed simultaneously in all wells using a Functional Drug Screening System (FDSS/μCELL) (Hamamatsu Phototonics K.K., Yokohama, Japan) at 37°C. Basal fluorescence was first measured for 30 s. […] P4 and PGE1 were tested at a near-saturating concentration in the HTS in order to evaluate a potential additive or synergistic effect induced by the compounds. Non-specific CatSper inhibitor MDL 12330A was used as a negative control at final concentration of 20 µM while DMSO was used as a vehicle control. For alkalization-induced Ca^2+ measurement, NH4Cl was used as a positive control at a final concentration of 10 mM. Fluorescence was recorded for a total of 16.5 min: 30 s before injection, 12 min after the first injection of the tested compounds, and 4 min after the second injection of either P4 or PGE1. The Prestwick library was tested in technical duplicate. Ca^2+ response curves were normalized using the following formula F−F0/F0×100 , where F 0 is the average of the basal fluorescence prior to the addition of the compound of interest and F corresponds to the fluorescence value at each time point. The ∆F/F0 of the vehicle control (DMSO) was subtracted from all the other values to adjust for dilution and pipetting artifacts. The values of all compounds were normalized to their respective controls.

CatSper [2] = molecular target: T1, CatSper; assay: Steroid-induced increase in [Ca2+]i in human sperm (Fluo-4 HTS assay, screen 1 activators); settings: for EC50: pooled from 3 independent experiments; for Emax: read-out: Max amplitude (%) (± SD)
Protocol: as §1
Human semen samples were collected from healthy donors by masturbation after a recommended sexual abstinence period of minimum 2 days. Semen samples were allowed to liquefy at 37°C for 15–30 min. […] Motile sperm were allowed to swim at 37°C for 1 hour. The supernatant was collected in 15 mL Falcon tubes and washed twice by centrifugation at 700 x g for 20 min. Sperm were supplemented with 3 mg/mL HSA.
as §3, with “20” for “Cells were loaded with the fluorescent Ca^2+ indicator Fluo-4 AM at a final concentration of 2.5 µM for 30 min at 37°C. Excess dye was washed via centrifugation at 700 x g for 20 min and sperm were resuspended in HTF medium to obtain a final concentration of 6.25 x 10^6 cells/mL. 20”, “Non-specific CatSper inhibitor MDL 12330A was used as a negative control at final concentration of 20 µM while DMSO was used as a vehicle control.” left out, “Fluorescence was recorded for a total of 16.5 min: 30 s before injection, 12 min after the first injection of the tested compounds, and 4 min after the second injection of either P4 or PGE1.” left out
Data are shown as mean ± standard deviation (SD) with “n” referring to the number of independent experiments performed using sperm samples from ≥3 different donors. Statistical analysis and fitting of dose-response relations were performed using GraphPad Prism 8.1.1 (Prism, La Jolla, United States). To generate sigmoidal curves, the concentrations were converted to their respective log values, and the data were normalized using the following formula: 100⋅x/Fmax , where Fmax is the maximum value of the positive control. A four-parameter Hill equation with a variable Hill coefficient was fitted to generate the EC02, EC50, and IC50. Statistical significance between control and treated conditions was evaluated using a one-way analysis of variance (ANOVA), followed by Dunnett´s test. A p-value <0.05 was considered significant.

CatSper [3] = molecular target: T1, CatSper; assay: Inhibition of PGE1-induced Ca2+ influx in human sperm (screen 2 inhibitors); settings: PGE1-induced response; pooled from 3 independent experiments; read-out: Mean IC50 (PGE1) µM (±SD)
Protocol: as §1, §2, §3

[4] = read-out: Mean IC50 (P4) µM (±SD)
[5] = maximal amplitude of steroid-induced [Ca2+]i increase, relative to P4, 3 independent experiments

Question: Which results are given for `C[C@]12CCC(=O)C(O)=C1CC[C@@H]1[C@@H]2CC[C@]2(C)C(=O)CC[C@@H]12` [formestane]?
Answer: Max P4 inhibition (%) (± SD) (CatSper [1]; 3 independent experiments): 70 (±8) %; IC50 (CatSper [1]; Mean IC50 (P4) µM (±SD)): 1.22 µM; EC50 (CatSper [2]; Mean EC50 µM (±SD)): 0.353 µM; Emax (CatSper [2]): 71%

Question: How did the “Max P4 inhibition (%) (± SD)” value (CatSper [1]; 3 independent experiments) turn out when `C[C@]12CC[C@@H]3c4ccc(O)cc4C[C@@H](CCCCCCCCC[S+]([O-])CCCC(F)(F)C(F)(F)F)[C@H]3[C@@H]1CC[C@@H]2O` (stereo partly drawn) [fulvestrant] was run?
Answer: 22 (±6) %

Question: And the IC50 (CatSper [1]; [4])?
Answer: 6.95 µM

Question: And the Emax (CatSper [2]; [5])?
Answer: 28%

Question: And the EC50 (CatSper [2]; read-out: Mean EC50 µM (±SD))?
Answer: 2.24 µM

Question: For `C#C[C@]1(O)CC[C@H]2[C@@H]3CCC4=CC(=O)CCC4=C3C=C[C@@]21CC` [gestrinone], which “Max P4 inhibition (%) (± SD)” value (CatSper [1]; 3 independent experiments) is on record?
Answer: 11 (±21) %

Question: What about the IC50 (CatSper [1]; Mean IC50 (P4) µM (±SD)) of the same compound?
Answer: 33.6 µM

Question: And the Emax (CatSper [2])?
Answer: 2%

Question: With `C[C@H](CCC(=O)O)[C@H]1CC[C@H]2[C@@H]3CC[C@@H]4C[C@H](O)CC[C@]4(C)[C@H]3CC[C@]12C` [lithocholic acid] as the compound, how does the “Max P4 inhibition (%) (± SD)” value (CatSper [1]) read?
Answer: 32 (±10) %

Question: What about the Emax (CatSper [2]) of the same compound?
Answer: 59%

Question: How did the “Max P4 inhibition (%) (± SD)” value (CatSper [1]; 3 independent experiments) turn out when `C#C[C@]1(O)CC[C@H]2[C@@H]3CCC4=CCCC[C@@H]4[C@H]3CC[C@@]21C` [lynestrenol] was run?
Answer: 47 (±27) %

Question: What about the IC50 (CatSper [1]; [4]) of the same compound?
Answer: 9.36 µM

Question: And the Emax (CatSper [2]; [5])?
Answer: 59%

Question: And the EC50 (CatSper [2]; read-out: Mean EC50 µM (±SD))?
Answer: 17.3 µM

Question: And the IC50 (CatSper [3])?
Answer: 11.7 µM

Question: For `CC(=O)O[C@]1(C(C)=O)CC[C@H]2[C@@H]3C=C(C)C4=CC(=O)CC[C@]4(C)[C@H]3CC[C@@]21C` [megestrol acetate], which “Max P4 inhibition (%) (± SD)” value (CatSper [1]; 3 independent experiments) is on record?
Answer: -4 (±11) %

Question: And the Emax (CatSper [2]; [5])?
Answer: 3%

Question: For `CC#C[C@]1(O)CC[C@H]2[C@@H]3CCC4=CC(=O)CCC4=C3[C@@H](c3ccc(N(C)C)cc3)C[C@@]21C` [mifepristone], which “Max P4 inhibition (%) (± SD)” value (CatSper [1]) is on record?
Answer: 25 (±25) %

Question: And the IC50 (CatSper [1]; [4])?
Answer: 11 µM

Question: What about the EC50 (CatSper [2]; read-out: Mean EC50 µM (±SD)) of the same compound?
Answer: 13.5 µM

Question: And the Emax (CatSper [2])?
Answer: 9%

Question: Which results are given for `CC(=O)O[C@]1(C(C)=O)CC[C@H]2[C@@H]3C=C(C)C4=CC(=O)CC[C@@H]4[C@H]3CC[C@@]21C` [nomegestrol acetate]?
Answer: Max P4 inhibition (%) (± SD) (CatSper [1]; 3 independent experiments): 12 (±17) %; IC50 (CatSper [1]; [4]): 41.2 µM; Emax (CatSper [2]; [5]): 19%; EC50 (CatSper [2]; read-out: Mean EC50 µM (±SD)): 22.7 µM; IC50 (CatSper [3]): 52 µM

Question: How did the “Max P4 inhibition (%) (± SD)” value (CatSper [1]) turn out when `C#C[C@]1(O)CC[C@H]2[C@@H]3CCC4=CC(=O)CC[C@@H]4[C@H]3CC[C@@]21C` [norethindrone] was run?
Answer: 22 (±5) %

Question: And the IC50 (CatSper [1]; [4])?
Answer: 4.35 µM

Question: And the EC50 (CatSper [2]; read-out: Mean EC50 µM (±SD))?
Answer: 6.05 µM

Question: And the Emax (CatSper [2])?
Answer: 28%

Question: For norgestrel-(-)-d, which “Max P4 inhibition (%) (± SD)” value (CatSper [1]; 3 independent experiments) is on record?
Answer: 3 (±5) %

Question: What about the IC50 (CatSper [1]; [4]) of the same compound?
Answer: 75.6 µM

Question: And the “Max amplitude (%) (± SD)” value (CatSper [2]; [5])?
Answer: 5 (±3) %
